Assay results from US20210045385A1, “PYRIDAZINONE-SUBSTITUTED KETOXIMES AS HERBICIDES” (FMC Corporation, priority 2018, published 2021).

Tests used:
Assay type in all cases: in vivo
[1] = tested on: barnyardgrass (Echinochloa crus-galli); test: Test D flooded paddy test, visual plant response rating; conditions: 250 g ai/ha, scale 0 to 100 (0 no effect, 100 complete control), 13 to 15 d
Procedure, shortened: (§1)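 Plants were grown to the 2-leaf stage, pots flooded to 3 cm above soil, and compound applied directly into the paddy water, with the depth held throughout. After 13 to 15 d in a greenhouse, response was rated visually against untreated controls on a 0–100 scale (0 no effect, 100 complete control).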

rice (Oryza sativa) = test: as above; conditions: 250 g ai/ha, scale 0 to 100 (0 no effect, 100 complete control), 13 to 15 d
Procedure, shortened: as §1

[2] = tested on: sedge umbrella (small-flower umbrella sedge, Cyperus difformis); test: as above; conditions: 250 g ai/ha, scale 0 to 100 (0 no effect, 100 complete control), 13 to 15 d
Procedure, shortened: as §1

[3] = tested on: duck salad (Heteranthera limosa); test: as above; conditions: 250 g ai/ha, scale 0 to 100 (0 no effect, 100 complete control), 13 to 15 d
Procedure, shortened: as §1

[4] = tested on: barnyardgrass (Echinochloa crus-galli); test: Test C preemergence, visual plant response rating
Procedure, shortened: (§2)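 Compounds in a non-phytotoxic solvent with surfactant were applied as a directed soil spray preemergence or to 2–10 cm, one- to two-leaf plants postemergence, in loam–sand soil. After about 10 d in a greenhouse, injury was visually rated against untreated controls on a 0–100 scale (100 = complete control).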

[5] = tested on: foxtail, giant (giant foxtail, Setaria faberi); test: Test C preemergence, visual plant response rating
Procedure, shortened: as §2

[6] = tested on: Italian ryegrass (Lolium mutiflorum); test: Test C preemergence, visual plant response rating
Procedure, shortened: as §2

[7] = tested on: pigweed (Amaranthus retroflexus); test: Test C preemergence, visual plant response rating
Procedure, shortened: as §2

kochia (Bassia scoparia) [8] = test: Test C preemergence, visual plant response rating
Procedure, shortened: as §2

[9] = tested on: ragweed (common ragweed, Ambrosia artemisiifolia); test: Test C preemergence, visual plant response rating
Procedure, shortened: as §2

[10] = tested on: barnyardgrass (Echinochloa crus-galli); test: Test C postemergence, visual plant response rating
Procedure, shortened: as §2

[11] = tested on: galium (catchweed bedstraw, Galium aparine); test: Test C postemergence, visual plant response rating
Procedure, shortened: as §2

[12] = tested on: foxtail, giant (giant foxtail, Setaria faberi); test: Test C postemergence, visual plant response rating
Procedure, shortened: as §2

corn (Zea mays) = test: Test C postemergence, visual plant response rating
Procedure, shortened: as §2

[13] = tested on: Italian ryegrass (Lolium mutiflorum); test: Test C postemergence, visual plant response rating
Procedure, shortened: as §2

[14] = tested on: blackgrass (Alopecurus myosuroides); test: Test C postemergence, visual plant response rating
Procedure, shortened: as §2

[15] = tested on: wheat (Triticum aestivum); test: Test C postemergence, visual plant response rating
Procedure, shortened: as §2

[16] = tested on: pigweed (Amaranthus retroflexus); test: Test C postemergence, visual plant response rating
Procedure, shortened: as §2

kochia (Bassia scoparia) [17] = test: Test C postemergence, visual plant response rating
Procedure, shortened: as §2

[18] = tested on: ragweed (common ragweed, Ambrosia artemisiifolia); test: Test C postemergence, visual plant response rating
Procedure, shortened: as §2

[19] = Test C, 31 g ai/ha, 0 is no effect, 100 is complete control
[20] = Test C, 125 g ai/ha, 0 is no effect, 100 is complete control
[21] = Test C, postemergence, 125 g ai/ha
[22] = Test C, postemergence, 31 g ai/ha

SMILES	Plant response rating, Barnyardgrass (Flood) [1]	Plant response rating, Rice (Flood) (rice (Oryza sativa))	Plant response rating, Sedge, Umbrella (Flood) [2]	Plant response rating, Ducksalad (Flood) [3]	Barnyardgrass plant response rating (0 to 100 scale) [4, 19]	Foxtail, Giant plant response rating (0 to 100 scale) [5, 19]	Ryegrass, Italian plant response rating (0 to 100 scale) [6, 19]	Pigweed plant response rating (0 to 100 scale) [7, 19]	Kochia plant response rating (0 to 100 scale) (kochia (Bassia scoparia) [8]; [19])	Ragweed plant response rating (0 to 100 scale) [9, 19]	Barnyardgrass plant response rating (0 to 100 scale) [10, 21]	Galium plant response rating (0 to 100 scale) [11, 21]	Foxtail, Giant plant response rating (0 to 100 scale) [12, 21]	Corn plant response rating (0 to 100 scale) (corn (Zea mays); [21])	Ryegrass, Italian plant response rating (0 to 100 scale) ([13]; Postemergence, 31 g ai/ha)	Ryegrass, Italian plant response rating (0 to 100 scale) [13, 21]	Blackgrass plant response rating (0 to 100 scale) [14, 21]	Wheat plant response rating (0 to 100 scale) ([15]; Postemergence, 31 g ai/ha)	Wheat plant response rating (0 to 100 scale) [15, 21]	Pigweed plant response rating (0 to 100 scale) ([16]; Postemergence, 31 g ai/ha)	further results
CON=C(c1cccc(OC)c1)c1c(O)c(C)nn(C)c1=O [Compound 204]	0	0	0	0	0	0	0	0	0	0	0	40	0	0	0	0	0	0	0	0	Barnyardgrass plant response rating (0 to 100 scale) [4, 20]: 0; Foxtail, Giant plant response rating (0 to 100 scale) [5, 20]: 0; Ryegrass, Italian plant response rating (0 to 100 scale) [6, 20]: 0; Pigweed plant response rating (0 to 100 scale) [7, 20]: 0; Kochia plant response rating (0 to 100 scale) (kochia (Bassia scoparia) [8]; [20]): 0; Ragweed plant response rating (0 to 100 scale) [9, 20]: 0; Barnyardgrass plant response rating (0 to 100 scale) ([10]; Postemergence, 31 g ai/ha): 0; Galium plant response rating (0 to 100 scale) ([11]; Postemergence, 31 g ai/ha): 10; Foxtail, Giant plant response rating (0 to 100 scale) ([12]; Postemergence, 31 g ai/ha): 0; Corn plant response rating (0 to 100 scale) (corn (Zea mays); Postemergence, 31 g ai/ha): 0; Blackgrass plant response rating (0 to 100 scale) ([14]; Postemergence, 31 g ai/ha): 0; Pigweed plant response rating (0 to 100 scale) [16, 21]: 10; Kochia plant response rating (0 to 100 scale) (kochia (Bassia scoparia) [17]; Postemergence, 31 g ai/ha): 0; Kochia plant response rating (0 to 100 scale) (kochia (Bassia scoparia) [17]; [21]): 10; Ragweed plant response rating (0 to 100 scale) ([18]; Postemergence, 31 g ai/ha): 0; Ragweed plant response rating (0 to 100 scale) [18, 21]: 0
CO/N=C(/c1c(O)c(C)nn(C)c1=O)c1cccc2cc(Cl)ccc12 [Compound 159]	0	0	0	0	40	0	0	30	0	70	60	80	70	30	20	80	30	0	10	90	Barnyardgrass plant response rating (0 to 100 scale) ([4]; 125 g ai/ha): 40; Foxtail, Giant plant response rating (0 to 100 scale) ([5]; 125 g ai/ha): 50; Ryegrass, Italian plant response rating (0 to 100 scale) ([6]; 125 g ai/ha): 80; Pigweed plant response rating (0 to 100 scale) ([7]; 125 g ai/ha): 40; Kochia plant response rating (0 to 100 scale) (kochia (Bassia scoparia) [8]; 125 g ai/ha): 20; Ragweed plant response rating (0 to 100 scale) ([9]; 125 g ai/ha): 90; Barnyardgrass plant response rating (0 to 100 scale) ([10]; Postemergence, 31 g ai/ha): 40; Galium plant response rating (0 to 100 scale) ([11]; Postemergence, 31 g ai/ha): 60; Foxtail, Giant plant response rating (0 to 100 scale) ([12]; Postemergence, 31 g ai/ha): 50; Corn plant response rating (0 to 100 scale) (corn (Zea mays); Postemergence, 31 g ai/ha): 10; Blackgrass plant response rating (0 to 100 scale) ([14]; Postemergence, 31 g ai/ha): 10; Pigweed plant response rating (0 to 100 scale) [16, 21]: 100; Kochia plant response rating (0 to 100 scale) (kochia (Bassia scoparia) [17]; Postemergence, 31 g ai/ha): 70; Kochia plant response rating (0 to 100 scale) (kochia (Bassia scoparia) [17]; [21]): 80; Ragweed plant response rating (0 to 100 scale) ([18]; Postemergence, 31 g ai/ha): 70; Ragweed plant response rating (0 to 100 scale) [18, 21]: 90
C#CCO/N=C(\c1cc(C)cc(Cl)c1)c1c(O)c(C)nn(C)c1=O [Compound 155]	15	0	45	30	70	80	40	40	0	70	80	90	90	20	90	100	90	0	60	50	Barnyardgrass plant response rating (0 to 100 scale) ([4]; 125 g ai/ha): 100; Foxtail, Giant plant response rating (0 to 100 scale) ([5]; 125 g ai/ha): 90; Ryegrass, Italian plant response rating (0 to 100 scale) ([6]; 125 g ai/ha): 100; Pigweed plant response rating (0 to 100 scale) ([7]; 125 g ai/ha): 100; Kochia plant response rating (0 to 100 scale) (kochia (Bassia scoparia) [8]; 125 g ai/ha): 90; Ragweed plant response rating (0 to 100 scale) ([9]; 125 g ai/ha): 90; Barnyardgrass plant response rating (0 to 100 scale) [10, 22]: 50; Galium plant response rating (0 to 100 scale) [11, 22]: 90; Foxtail, Giant plant response rating (0 to 100 scale) [12, 22]: 80; Corn plant response rating (0 to 100 scale) (corn (Zea mays); [22]): 0; Blackgrass plant response rating (0 to 100 scale) [14, 22]: 30; Pigweed plant response rating (0 to 100 scale) [16, 21]: 100; Kochia plant response rating (0 to 100 scale) (kochia (Bassia scoparia) [17]; [22]): 70; Kochia plant response rating (0 to 100 scale) (kochia (Bassia scoparia) [17]; [21]): 80; Ragweed plant response rating (0 to 100 scale) ([18]; Postemergence, 31 g ai/ha): 90; Ragweed plant response rating (0 to 100 scale) [18, 21]: 100
